US7632843B2, “Treatment of psychostimulant addiction” (priority 2002, dated 2009)
Read-outs that look alike come from different tables or passages of the source.

Tests used:
[1] = tested on: male Wistar rats; test: Craving model: within session extinction and reinstatement paradigm in rats self-administering cocaine; type: in vivo, Rattus norvegicus
Protocol: The study was performed in male Wistar rats (Rattus norvegicus) (the number is given above the columns in the figures) each weighing 180 to 210 g at the beginning of the experiment. The animals used in this experiment were maintained on a 12-hour dark-light cycle under controlled conditions at temperature 22 to 24° C., individually housed in standard cages with free excess to food and water.
In the tests the following active substances were used: • Cocaine hydrochloride • Bromocriptine mesylate • LEK-8829 (9,10-didehydro-N-methyl-N-(2-propynyl)-6-methyl-8β-aminometylergoline bimaleate) Operant Cage for Self-Injecting
The rats were trained and tested in standard operant test chambers (Coulbourn Instruments, Allentown, Pa., USA). Test chambers were built in a modular form and placed in sound-attenuated cubicles. Each was equipped with a ventilating fan that also served as sound source to mask external sound. Chambers were equipped with bulbs emitting white lights. Each chamber contained two nose-poke operanda mounted in 2 cm from the floor and 10 cm apart on the same wall. […] The cocaine solution was administered via the catheter. The latter connected the rat to a syringe ([…] (RAZEL, model A, 10 rpm), installed outside the cage. Time schedule of the experiments and data acquisition were controlled by a computer operated by a software package (Graphic State Notation 2 2.002-00; Coulbourn Instruments, Allentown, Pa., USA).
Each rat was anesthetized with the anaesthetic mixture (ketamine 60 mg/kg and xylazine 8 mg/kg) and implanted with an indwelling jugular catheter. […]
The rats were trained in self-injection of cocaine in daily, 2-hour self-administration sessions during their light cycle, every day except on Saturdays and Sundays. […] Each activation of the active opening was followed by a 30-second period of inactivation (time-out period when the light in the cage was switched off and activation of the active opening was only recorded but without any consequences). […]

[2] = tested on: mice; test: Inhibition of increased locomotor activity produced by cocaine injection; type: in vivo
Protocol: In the experiments in eight mice, intraperitoneal injection of LEK-8829 (in the form of bimaleate salt) inhibited the increased locomotor activity produced by intraperitoneal cocaine injection of 20 mg/kg.

[3] = tested on: mice; test: Inhibition of spontaneous locomotor activity; type: in vivo; conditions: Mus musculus, ip, LEK-8829 bimaleate i.p.
[4] = tested on: rats; test: Drug discrimination study (cocaine 10 mg/kg) in rats; type: in vivo
Excerpt: (§1) According to the data from literature, it is well known that rodents and primates are capable to discriminate most psychostimulants abused by humans. Therefore, a model of the specific drug discrimination in experimental animals is a suitable method for the assessment of new active substances in case of the abuse of psychostimulants.

[5] = tested on: Rhesus monkeys; test: Drug discrimination study (cocaine 0.4 mg/kg vs physiological saline) in Rhesus monkeys; type: in vivo; conditions: four Rhesus monkeys; doses 0.032 to 0.32 mg/kg; trained on cocaine 0.4 mg/kg vs saline
Excerpt: as §1

[6] = tested on: rats; test: Cocaine self-administration model in rats, saccharin as comparative stimulant; type: in vivo; conditions: for ED50: Rattus norvegicus, rats
Protocol: The action of the active substance LEK-8829 (in the form of bimaleate salt) at doses ranging from 0.25 to 2.5 mg/kg on sensations of pleasure induced by cocaine self-administration was assessed as the effect on the rate of cocaine self-administration in the experiments in five rats. For determination of the specificity of the effect on cocaine, a solution of saccharin was used as a comparative stimulant. […] In the range of medium doses, LEK-8829 caused an increase in overall input of cocaine self-administration in three animals.

[7] = tested on: Rhesus monkeys; test: Cocaine self-administration versus food intake in Rhesus monkeys; type: in vivo
Protocol: The effect of LEK-8829 (in the form of bimaleate salt) at doses of 0.032 to 0.32 mg/kg intramuscularly on cocaine self-administration in comparison with the effect on food intake (specificity of the effect on feelings of pleasure induced by cocaine, in comparison with non-specific sedative effect) was also tested in four Rhesus monkeys.

[8] = tested on: D2 receptors; conditions: previous studies (Zivin et al 1996, 1998; Sprah et al 1999); cited from earlier work
[9] = target: D1 receptors (Rattus norvegicus, UniProt P18901); conditions: previous studies (Zivin et al 1996, 1998; Sprah et al 1999); cited from earlier work
Sequence of D1 receptors (P18901 whole entry): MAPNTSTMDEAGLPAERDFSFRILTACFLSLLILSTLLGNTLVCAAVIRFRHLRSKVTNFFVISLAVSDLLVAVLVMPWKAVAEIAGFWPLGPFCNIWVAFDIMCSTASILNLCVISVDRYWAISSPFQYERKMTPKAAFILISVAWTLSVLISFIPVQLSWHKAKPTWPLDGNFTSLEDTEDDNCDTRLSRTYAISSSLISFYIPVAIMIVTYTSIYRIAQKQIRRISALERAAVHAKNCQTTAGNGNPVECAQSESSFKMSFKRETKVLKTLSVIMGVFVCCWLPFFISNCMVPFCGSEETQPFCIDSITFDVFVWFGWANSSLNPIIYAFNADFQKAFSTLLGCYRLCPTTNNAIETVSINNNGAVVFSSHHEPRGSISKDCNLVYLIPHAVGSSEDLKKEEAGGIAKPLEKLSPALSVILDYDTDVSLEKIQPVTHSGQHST

Structure (SMILES)	appetitive behaviour induced by the substance itself ([1]; bromocriptine 2 mg/kg i.v. before the cocaine injection)	ID50, inhibition of increased locomotor activity produced by cocaine ([2]; eight mice, LEK-8829 bimaleate i.p., cocaine 20 mg/kg i.p.) [mg/kg]	ratio of ED50/ID50 (spontaneous vs cocaine-increased locomotor activity) ([2]; mice, selectivity of the effect against cocaine)	ED50 [3] [mg/kg]	partial antagonism of cocaine effect ([4]; rats, dose 2.5 mg/kg) [%]	replacement of the discriminative stimulating effect of cocaine ([4]; six rats, doses 0.25 to 2.5 mg/kg)	inhibition of the discriminative stimulating effect of cocaine ([4]; six rats, doses 0.5 to 5 mg/kg)	discriminative stimulating effect of plain LEK-8829 in the sense of cocaine effect [5]	ED50 ([6]; non-specific effect, read-out: ED50, blocking effect on the input of saccharin) [mg/kg]	ED50 ([6]; read-out: ED50, blocking effect on cocaine self-administration) [mg/kg]	effect on the dose/response curve of cocaine self-administration ([6]; five rats, dose range printed 0.2.5 to 1.55 mg/kg, four of five animals)	effect on the curve dose/input of cocaine at the largest dose ([7]; Rhesus monkeys, 0.32 mg/kg i.m.)	effect on the curve dose/input of cocaine at small and medium doses ([7]; Rhesus monkeys, 0.032 and 0.1 mg/kg i.m.)	effect on food intake ([7]; Rhesus monkeys, 0.032 to 0.32 mg/kg i.m.)	effect on cocaine self-administration ([7]; four Rhesus monkeys, 0.032 to 0.32 mg/kg intramuscularly, dose-dependent)	effect on cocaine-induced self-injecting (activations of the active opening, last half-hour) ([1]; LEK-8829 i.v. 0.25 and 0.5 mg/kg, 30 minutes before cocaine 2 mg/kg i.v., p<0.05 vs SAL+COC)	effect on relapse triggered by cocaine (activations of the active opening, last hour) ([1]; i.p. 0.5 to 5 mg/kg, 30 minutes before cocaine 2 mg/kg i.v., p<0.05 vs SAL+COC)	effect on D2 receptors [8]	effect on D1 receptors [9]
CC(C)C[C@H]1C(=O)N2CCC[C@H]2[C@]2(O)O[C@](NC(=O)[C@@H]3C=C4c5cccc6[nH]c(Br)c(c56)C[C@H]4N(C)C3)(C(C)C)C(=O)N12 [Bromocriptine, reference compound]	induced the appetitive behaviour	–	–	–	–	–	–	–	–	–	–	–	–	–	–	–	–	–	–
C#CCN(C)C[C@@H]1C=C2c3cccc4[nH]cc(c34)C[C@H]2N(C)C1 [LEK-8829, 9,10-didehydro-N-methyl-N-(2-propynyl)-6-methyl-8β-aminomethylergoline]	–	1.2	1.8	2.1	56	did not replace the discriminative stimulating effect of cocaine	partly inhibited the discriminative stimulating effect of cocaine	did not recognize the discriminative stimulating effect	2.16	0.17	produced a right shift of the curve in the ratio dose/response to cocaine	blocked the effect of cocaine along the entire (ascending and descending) part of the curve	decreased the ascending part of the curve	only a minor inhibiting effect on food intake	inhibited cocaine self-administration	statistically significantly reduced cocaine-induced self-injecting	statistically significantly reduced a relapse triggered by cocaine	antagonistic effects on D2 receptors	agonist effects on D1 receptors
